This is an account of results in patent US8815869B2, “Lactam acetamides as calcium channel blockers” (AbbVie Inc., priority 2010, dated 2014).

The target of one test is T1, Human Cav3.2 (Homo sapiens, UniProt O95180).
T1 construct: expressed in transfected cells
The experiment in a line: Electrophysiologic (whole-cell patch-clamp) assessment of calcium channel activity, HEK293 cells stably expressing hCav3.2. Format: cell-based. As to conditions: −77 mV, GeoMean. The procedure:
(ii) In Vitro Methods—Electrophysiologic Assessment of Calcium Channel Activity
Patch-clamp recordings were performed using HEK293 cells stably expressing hCav3.2. Cells were plated in T175 flasks and grown at 37° C. and under 5% CO2 to approximately 50% confluency. On the day of the experiment, cells were harvested with Detachin™ cell detachment solution (Genlantis, San Diego, Calif.) and maintained in serum-free culture medium supplemented with 25 mM HEPES up to several hours prior to experiment. Whole-cell patch-clamp recordings were obtained using extracellular saline consisting of (mM): 87.5 CsCl, 40 TEA-Cl, 5 CaCl2, 1 MgCl2, 10 HEPES, 10 glucose. The pH was adjusted to 7.2 with CsOH and the osmolarity was adjusted to approximately 310 mOsm with sucrose. Intracellular solution consisted of (mM): 112 CsCl, 27 CsF, 2 NaCl, 8.2 EGTA, 10 HEPES. Prior to an experiment 4 mM Mg2ATP was added and the pH was adjusted to 7.2 with CsOH with an osmolarity of approximately 290 mOsm. A two-pulse voltage protocol was utilized to assess compound inhibition. First, cells were held with an 8 second pre-pulse at −100 mV prior to a 160 millisecond test pulse to −30 mV. This was followed by an 8 second pre-pulse at approximately −75 mV prior to a […] test pulse to −30 mV. Increasing concentrations of antagonist were applied to individual cells in a multi-addition format with 5 minutes in each test concentration. For each cell, responses were normalized to dimethyl sulfoxide vehicle control to generate concentration-response curves.

The subject of a further test is Sprague Dawley rats. The test is described as follows: Capsaicin induced secondary mechanical hyperalgesia model. Format: in vivo. The settings on record: po, 1 h; 30 mg/kg p.o., 60 minutes before testing; relative to vehicle; secondary mechanical hyperalgesia 180 minutes after capsaicin; rat. The procedure: (iii) In Vivo Data—Capsaicin Induced Secondary Mechanical Hyperalgesia Model
Sprague Dawley rats were briefly restrained, and capsaicin was administered at 10 μg in 10 μL of vehicle by intraplantar injection into the center of the right hind paw. Secondary mechanical hyperalgesia (SMH) was measured at the heel away from the site of injection 180 minutes following capsaicin exposure. Compounds and gabapentin (positive control), were administered p.o. 60 minutes before testing (2 hours after capsaicin) or i.p. 30 minutes before testing (2.5 hours after capsaicin). SMH was measured using calibrated von Frey filaments (Stoelting, Woodale, Ill.). Following the 1 hour habituation in the testing room, rats were moved to individual plexiglass chambers that sit on top of a wire mesh to allow for access for stimulation of the plantar surface of the hind paws. Rats were allowed to acclimate to the new chambers for 15 minutes before the onset of testing. The paw withdrawal threshold was determined by increasing and decreasing stimulus intensity (force: g) and calculated using Dixon's up-down method (Chaplan, S R; et al. J. Neuroscience Methods 1994; 53: 55-63). The filaments (maximum force of 15.0 g) were held in place for 8 seconds or until there was a withdrawal response from the mechanical stimulation.

The structures appear in SMILES notation. pIC50: −log10 of the molar value.

T1 sequence (O95180 whole entry): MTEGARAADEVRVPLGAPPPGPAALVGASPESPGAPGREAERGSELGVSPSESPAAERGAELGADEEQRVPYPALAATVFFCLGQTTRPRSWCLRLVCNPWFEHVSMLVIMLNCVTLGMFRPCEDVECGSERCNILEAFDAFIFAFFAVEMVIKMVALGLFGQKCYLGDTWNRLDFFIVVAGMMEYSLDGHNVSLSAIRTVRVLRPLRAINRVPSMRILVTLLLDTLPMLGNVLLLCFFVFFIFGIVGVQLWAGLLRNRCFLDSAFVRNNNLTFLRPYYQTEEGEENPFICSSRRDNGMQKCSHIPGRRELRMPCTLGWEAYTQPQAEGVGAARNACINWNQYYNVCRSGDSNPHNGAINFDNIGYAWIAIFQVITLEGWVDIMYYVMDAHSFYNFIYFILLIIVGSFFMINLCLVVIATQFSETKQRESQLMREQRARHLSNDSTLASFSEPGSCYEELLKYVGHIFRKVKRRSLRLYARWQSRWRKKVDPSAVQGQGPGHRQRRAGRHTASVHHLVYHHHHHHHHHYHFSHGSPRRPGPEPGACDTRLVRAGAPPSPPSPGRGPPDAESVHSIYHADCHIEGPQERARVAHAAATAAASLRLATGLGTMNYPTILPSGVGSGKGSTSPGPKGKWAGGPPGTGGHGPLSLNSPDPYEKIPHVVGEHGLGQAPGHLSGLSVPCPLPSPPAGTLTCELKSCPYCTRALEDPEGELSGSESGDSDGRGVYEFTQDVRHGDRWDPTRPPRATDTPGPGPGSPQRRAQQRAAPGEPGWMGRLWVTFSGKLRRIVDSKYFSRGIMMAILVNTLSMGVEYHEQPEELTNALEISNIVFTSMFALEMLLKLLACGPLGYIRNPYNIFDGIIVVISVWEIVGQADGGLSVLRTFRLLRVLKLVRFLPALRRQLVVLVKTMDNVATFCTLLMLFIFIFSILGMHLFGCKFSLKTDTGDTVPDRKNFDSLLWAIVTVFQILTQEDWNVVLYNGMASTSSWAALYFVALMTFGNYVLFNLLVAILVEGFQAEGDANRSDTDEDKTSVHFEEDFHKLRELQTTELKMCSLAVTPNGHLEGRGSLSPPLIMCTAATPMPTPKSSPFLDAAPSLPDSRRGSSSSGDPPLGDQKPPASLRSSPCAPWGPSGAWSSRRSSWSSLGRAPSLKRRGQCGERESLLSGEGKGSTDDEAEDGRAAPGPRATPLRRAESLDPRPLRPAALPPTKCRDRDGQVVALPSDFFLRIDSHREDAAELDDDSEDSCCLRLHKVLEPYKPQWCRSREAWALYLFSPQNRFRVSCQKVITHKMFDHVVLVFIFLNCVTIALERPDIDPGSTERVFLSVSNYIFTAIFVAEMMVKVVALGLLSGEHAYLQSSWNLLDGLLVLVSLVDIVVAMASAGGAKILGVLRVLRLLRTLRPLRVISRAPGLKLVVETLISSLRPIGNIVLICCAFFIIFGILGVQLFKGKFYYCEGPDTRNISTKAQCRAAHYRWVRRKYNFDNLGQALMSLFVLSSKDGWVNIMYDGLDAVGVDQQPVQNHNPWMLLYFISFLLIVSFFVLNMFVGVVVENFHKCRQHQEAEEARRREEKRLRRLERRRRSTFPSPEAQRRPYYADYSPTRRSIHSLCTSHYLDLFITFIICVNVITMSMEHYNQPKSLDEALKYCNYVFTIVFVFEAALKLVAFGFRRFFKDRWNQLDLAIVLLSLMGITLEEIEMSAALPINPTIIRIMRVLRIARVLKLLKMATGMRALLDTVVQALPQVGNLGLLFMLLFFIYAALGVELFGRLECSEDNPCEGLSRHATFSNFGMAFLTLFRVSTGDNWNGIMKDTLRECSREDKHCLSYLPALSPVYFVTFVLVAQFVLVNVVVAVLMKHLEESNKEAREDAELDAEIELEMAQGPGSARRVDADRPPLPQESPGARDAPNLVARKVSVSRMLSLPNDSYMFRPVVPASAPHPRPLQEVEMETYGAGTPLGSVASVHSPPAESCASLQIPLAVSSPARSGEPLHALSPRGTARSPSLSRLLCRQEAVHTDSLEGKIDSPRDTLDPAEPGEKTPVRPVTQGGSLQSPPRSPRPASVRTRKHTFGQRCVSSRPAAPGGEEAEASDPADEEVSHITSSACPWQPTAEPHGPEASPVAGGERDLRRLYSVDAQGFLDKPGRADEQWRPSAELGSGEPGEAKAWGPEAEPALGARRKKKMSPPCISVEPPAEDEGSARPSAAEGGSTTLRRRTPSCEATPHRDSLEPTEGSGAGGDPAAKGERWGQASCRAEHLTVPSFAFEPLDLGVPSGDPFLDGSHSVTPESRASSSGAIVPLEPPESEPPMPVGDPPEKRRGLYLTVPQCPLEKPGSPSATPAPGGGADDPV

By pIC50 is commonly meant the IC50 on a negative log10 scale, so that one unit is a factor of ten. The inhibition in vivo is the relative decrease from the control value, in per cent. Turning to `O=C(CN1CCCC(c2ccccc2)(c2ccccc2)C1=O)N1C[C@@H]2CN[C@@H](C2)C1` (relative stereo) [Example 13, 1-{2-[(1S*,5S*)-3,6-Diazabicyclo[3.2.1]oct-3-yl]-2-oxoethyl}-3,3-diphenylpiperidin-2-one], on Human Cav3.2, the pIC50 is 5.44. Besides, in the test with Sprague Dawley rats, the inhibition in vivo at 30 mg/kg stood at 60%.

As for `O=C(CN1CCCC(c2ccccc2)(c2ccccc2)C1=O)NC1CCNCC1` [Example 1, 2-(2-Oxo-3,3-diphenylpiperidin-1-yl)-N-(piperidin-4-yl)acetamide], the pIC50 on Human Cav3.2 was under 5.00. Consider `CC1(C)C(=O)NCCN1C(=O)CN1CCCC(c2ccccc2)(c2ccccc2)C1=O` [Example 2, 3,3-Dimethyl-4-[(2-oxo-3,3-diphenylpiperidin-1-yl)acetyl]piperazin-2-one], for which the pIC50 at Human Cav3.2 was 5.56. In the case of `O=C(CN1CCCC(c2ccccc2)(c2ccccc2)C1=O)N1C[C@@H]2CCCN[C@@H]2C1` [Example 3, 1-{2-[(4aS,7aS)-Octahydro-6H-pyrrolo[3,4-b]pyridin-6-yl]-2-oxoethyl}-3,3-diphenylpiperidin-2-one], the pIC50 at Human Cav3.2 was 5.36. Besides, the inhibition in vivo at 30 mg/kg with Sprague Dawley rats was 31%. On the same counts, the results for `O=C(CN1CCCC(c2ccccc2)(c2ccccc2)C1=O)N1C[C@H]2CCCN[C@H]2C1` [Example 4, 1-{2-[(4aR,7aR)-Octahydro-6H-pyrrolo[3,4-b]pyridin-6-yl]-2-oxoethyl}-3,3-diphenylpiperidin-2-one] are under 5.00 and 19%. Consider `O=C(CN1CCCC(c2ccccc2)(c2ccccc2)C1=O)N1CCC[C@H]2CNC[C@H]21` [Example 5, 1-{2-[(4aS,7aS)-Octahydro-1H-pyrrolo[3,4-b]pyridin-1-yl]-2-oxoethyl}-3,3-diphenylpiperidin-2-one], for which the pIC50 at Human Cav3.2 was 5.80. Turning to `O=C(CN1CCCC(c2ccccc2)(c2ccccc2)C1=O)N1CC2CNCC2C1` (stereo not shown) [Example 6, 1-(2-Hexahydropyrrolo[3,4-c]pyrrol-2(1H)-yl-2-oxoethyl)-3,3-diphenylpiperidin-2-one], the pIC50 at Human Cav3.2 was 5.27. For the same compound, in the test on Sprague Dawley rats, the inhibition in vivo at 30 mg/kg stood at 74%.

On to `O=C(CN1CCCC(c2ccccc2)(c2ccccc2)C1=O)N1CC2(CCNCC2)C1` [Example 7, 1-[2-(2,7-Diazaspiro[3.5]non-2-yl)-2-oxoethyl]-3,3-diphenylpiperidin-2-one], for which the pIC50 on Human Cav3.2 was 5.24. Also, the inhibition in vivo at 30 mg/kg in the test with Sprague Dawley rats was found to be 19%. Regarding `O=C(CN1CCCC(c2ccccc2)(c2ccccc2)C1=O)NC[C@H]1CCCN1` [Example 8, 2-(2-Oxo-3,3-diphenylpiperidin-1-yl)-N-[(2R)-pyrrolidin-2-ylmethyl]acetamide], at Human Cav3.2, the pIC50 was under 5.00.

On to `O=C(CN1CCCC(c2ccccc2)(c2ccccc2)C1=O)NC[C@@H]1CCCN1` [Example 9, 2-(2-Oxo-3,3-diphenylpiperidin-1-yl)-N-[(2S)-pyrrolidin-2-ylmethyl]acetamide], for which the pIC50 on Human Cav3.2 was 5.23. Same read-out and setting: to `O=C1CN(C(=O)CN2CCCC(c3ccccc3)(c3ccccc3)C2=O)CCN1` [Example 10, 4-[(2-Oxo-3,3-diphenylpiperidin-1-yl)acetyl]piperazin-2-one] belongs under 5.00. The same measure, in the same setting: in the case of `O=C(CN1CCCC(c2ccccc2)(c2ccccc2)C1=O)NC1CNC1` [Example 11, N-Azetidin-3-yl-2-(2-oxo-3,3-diphenylpiperidin-1-yl)acetamide] it was 6.25.

Consider `O=C(CN1CCCC(c2ccccc2)(c2ccccc2)C1=O)N1CCNCC1` [Example 12, 1-(2-Oxo-2-piperazin-1-ylethyl)-3,3-diphenylpiperidin-2-one], for which, on Human Cav3.2, the pIC50 is under 5.00. Also, in the test with Sprague Dawley rats, the inhibition in vivo at 30 mg/kg was 41%.

In the case of `O=C(CN1CCC(c2ccc(F)cc2)(c2ccc(F)cc2)C1=O)N1CCNCC1` [Example 14, 3,3-Bis(4-fluorophenyl)-1-(2-oxo-2-piperazin-1-ylethyl)pyrrolidin-2-one], the pIC50 on Human Cav3.2 was 5.11. Besides, the inhibition in vivo at 30 mg/kg with Sprague Dawley rats came to 52%.

On to `O=C(CN1CCC(c2ccc(F)cc2)(c2ccc(F)cc2)C1=O)N1CCN2CCC[C@@H]2C1` [Example 15, 3,3-Bis(4-fluorophenyl)-1-{2-[(8aR)-hexahydropyrrolo[1,2-a]pyrazin-2(1H)-yl]-2-oxoethyl}pyrrolidin-2-one], for which, at Human Cav3.2, the pIC50 was 5.67. The same measure, in the same setting: in the case of `O=C(CN1CCC(c2ccc(F)cc2)(c2ccc(F)cc2)C1=O)NC1CNC1` [Example 16, N-Azetidin-3-yl-2-[3,3-bis(4-fluorophenyl)-2-oxopyrrolidin-1-yl]acetamide] it was 6.09; in that of `O=C(CN1CCC(c2ccc(F)cc2)(c2ccc(F)cc2)C1=O)N(C1CCNCC1)C1CC1` [Example 17, 2-[3,3-Bis(4-fluorophenyl)-2-oxopyrrolidin-1-yl]-N-cyclopropyl-N-piperidin-4-ylacetamide], 5.39. Turning to `O=C(CN1CCC(c2ccc(F)cc2)(c2ccc(F)cc2)C1=O)N(C1CCC1)C1CCNCC1` [Example 18, 2-[3,3-Bis(4-fluorophenyl)-2-oxopyrrolidin-1-yl]-N-cyclobutyl-N-piperidin-4-ylacetamide], on Human Cav3.2, the pIC50 is 5.04. The inhibition in vivo at 30 mg/kg in the test with Sprague Dawley rats stood at 5%.

For `O=C(CN1CCC(c2ccc(F)cc2)(c2ccc(F)cc2)C1=O)N(C1CCCC1)C1CCNCC1` [Example 19, 2-[3,3-Bis(4-fluorophenyl)-2-oxopyrrolidin-1-yl]-N-cyclopentyl-N-piperidin-4-ylacetamide], the pIC50 at Human Cav3.2 is 5.96.

With `O=C(CN1CCC(c2ccccc2)(c2ccccc2)C1=O)N1CCN(C2CCCCC2)CC1` [Example 21, 1-[2-(4-Cyclohexylpiperazin-1-yl)-2-oxoethyl]-3,3-diphenylpyrrolidin-2-one], the pIC50 on Human Cav3.2 was 6.00. Same read-out and setting: to `CN1CCN(C(=O)CN2CCCC(c3ccccc3)(c3ccccc3)C2=O)CC1` [Example 22, 1-[2-(4-Methylpiperazin-1-yl)-2-oxoethyl]-3,3-diphenylpiperidin-2-one] belongs under 5.00. Consider `O=C(CN1CCCC(c2ccc(F)cc2)(c2ccc(F)cc2)C1=O)N1CCNCC1` [Example 23, 3,3-Bis(4-fluorophenyl)-1-(2-oxo-2-piperazin-1-ylethyl)piperidin-2-one], for which the inhibition in vivo at 30 mg/kg in the test on Sprague Dawley rats was -2%.

On to `O=C(CN1CCC(c2ccccc2)(c2ccccc2)C1=O)N1CCNCC1` [Example 24, 1-(2-Oxo-2-piperazin-1-ylethyl)-3,3-diphenylpyrrolidin-2-one], for which the inhibition in vivo at 30 mg/kg in the test on Sprague Dawley rats was determined as 52%.
